Data as given in US20240132525A1, “BORON […], CO[…], METHODS AND USES THEREOF” (priority 2022, published 2024).
Where a name gives a salt, the structure may show the parent alone. Read-outs that look alike come from different tables or passages of the source.

Tests used:
JAK2 = JAK2 (Homo sapiens (Human), UniProt O60674); test: Biochemical kinase assay (33P-ATP filter-binding), JAK2; conditions: read-out: IC50 JAK2
Text: (§1) Biochemical Kinase Assay Protocol (JAK)
(§2) Reaction Procedure: • 1. […] Detected kinase activity by filter-binding method.

JAK1 = JAK1 (Homo sapiens (Human), UniProt P23458); test: Biochemical kinase assay (33P-ATP filter-binding), JAK1; conditions: read-out: IC50 JAK1
Chain of JAK1 (P23458 whole entry, species assumed): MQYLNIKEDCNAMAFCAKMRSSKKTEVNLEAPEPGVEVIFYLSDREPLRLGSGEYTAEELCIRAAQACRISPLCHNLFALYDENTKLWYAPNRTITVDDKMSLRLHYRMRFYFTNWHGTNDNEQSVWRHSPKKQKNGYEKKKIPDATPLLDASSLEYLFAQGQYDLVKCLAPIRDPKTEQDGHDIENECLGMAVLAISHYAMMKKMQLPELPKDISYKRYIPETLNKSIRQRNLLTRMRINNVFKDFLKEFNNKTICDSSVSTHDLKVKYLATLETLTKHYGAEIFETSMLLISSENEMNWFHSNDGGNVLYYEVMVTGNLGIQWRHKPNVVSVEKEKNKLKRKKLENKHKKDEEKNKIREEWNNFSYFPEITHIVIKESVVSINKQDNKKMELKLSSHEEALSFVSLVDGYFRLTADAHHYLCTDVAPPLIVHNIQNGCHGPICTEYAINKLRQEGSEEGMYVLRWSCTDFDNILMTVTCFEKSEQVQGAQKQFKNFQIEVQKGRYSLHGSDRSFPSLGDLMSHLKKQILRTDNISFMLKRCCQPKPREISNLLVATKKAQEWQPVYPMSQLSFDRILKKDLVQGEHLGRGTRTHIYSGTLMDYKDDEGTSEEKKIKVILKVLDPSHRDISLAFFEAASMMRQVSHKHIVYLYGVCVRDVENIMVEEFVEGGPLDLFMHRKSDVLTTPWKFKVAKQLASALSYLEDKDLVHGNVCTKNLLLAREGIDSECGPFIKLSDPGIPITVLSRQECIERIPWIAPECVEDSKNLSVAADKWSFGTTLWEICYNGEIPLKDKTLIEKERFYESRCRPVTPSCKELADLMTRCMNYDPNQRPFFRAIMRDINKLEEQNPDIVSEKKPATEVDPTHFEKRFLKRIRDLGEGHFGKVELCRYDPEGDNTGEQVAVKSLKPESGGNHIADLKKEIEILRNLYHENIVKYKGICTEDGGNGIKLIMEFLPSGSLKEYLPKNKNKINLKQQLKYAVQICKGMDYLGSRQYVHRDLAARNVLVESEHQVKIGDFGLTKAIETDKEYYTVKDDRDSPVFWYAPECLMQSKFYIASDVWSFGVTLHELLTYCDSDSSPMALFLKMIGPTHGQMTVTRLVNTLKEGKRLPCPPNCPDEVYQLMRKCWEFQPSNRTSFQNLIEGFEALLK
Text: as §1, §2

[1] = Dog LM (liver microsome) assay; assay type: in vitro ADME; conditions: Table 3a; predicted clearance as percent of liver blood flow, 1 μM, 1 mg/ml microsomal protein
Method: Dog LM (Liver Microsome) Assay
The metabolic degradation of the test compound is assayed at 37° C. with pooled liver microsomes from dogs (Beagle). The final incubation volume of 100 μl per time point contains TRIS buffer pH 7.6 at RT (0.1 M), magnesium chloride (5 mM), microsomal protein (1 mg/ml) and the test compound at a final concentration of 1 μM. Following a short preincubation period at 37° C., the reactions were initiated by addition of beta-nicotinamide adenine dinucleotide phosphate, reduced form (NADPH, 1 mM) and terminated by transferring an aliquot into solvent after different time points. Additionally, the NADPH-independent degradation was monitored in incubations without NADPH, terminated at the last time point. The [%] remaining test compound after NADPH independent incubation is reflected by the parameter c (control) (metabolic stability). The quenched incubations are pelleted by centrifugation (10000 g, 5 min). An aliquot of the supernatant is assayed by LC-MS/MS for the amount of parent compound. The half-life (t½ INVITRO) is determined by the slope of the semilogarithmic plot of the concentration-time profile. The intrinsic clearance (CL_[…]) is calculated by considering the amount of protein in the incubation: CL_[…] [μl/min/mg protein]=(Ln 2/(half-life [min]*protein content [mg/ml]))*1000. For better across species comparison the predicted clearance is expressed as percent of the liver blood flow [% QH] in the individual species. In general, high stability (corresponding to low % QH) of the compounds across species is desired.

Chain of JAK2 (O60674 whole entry, species assumed): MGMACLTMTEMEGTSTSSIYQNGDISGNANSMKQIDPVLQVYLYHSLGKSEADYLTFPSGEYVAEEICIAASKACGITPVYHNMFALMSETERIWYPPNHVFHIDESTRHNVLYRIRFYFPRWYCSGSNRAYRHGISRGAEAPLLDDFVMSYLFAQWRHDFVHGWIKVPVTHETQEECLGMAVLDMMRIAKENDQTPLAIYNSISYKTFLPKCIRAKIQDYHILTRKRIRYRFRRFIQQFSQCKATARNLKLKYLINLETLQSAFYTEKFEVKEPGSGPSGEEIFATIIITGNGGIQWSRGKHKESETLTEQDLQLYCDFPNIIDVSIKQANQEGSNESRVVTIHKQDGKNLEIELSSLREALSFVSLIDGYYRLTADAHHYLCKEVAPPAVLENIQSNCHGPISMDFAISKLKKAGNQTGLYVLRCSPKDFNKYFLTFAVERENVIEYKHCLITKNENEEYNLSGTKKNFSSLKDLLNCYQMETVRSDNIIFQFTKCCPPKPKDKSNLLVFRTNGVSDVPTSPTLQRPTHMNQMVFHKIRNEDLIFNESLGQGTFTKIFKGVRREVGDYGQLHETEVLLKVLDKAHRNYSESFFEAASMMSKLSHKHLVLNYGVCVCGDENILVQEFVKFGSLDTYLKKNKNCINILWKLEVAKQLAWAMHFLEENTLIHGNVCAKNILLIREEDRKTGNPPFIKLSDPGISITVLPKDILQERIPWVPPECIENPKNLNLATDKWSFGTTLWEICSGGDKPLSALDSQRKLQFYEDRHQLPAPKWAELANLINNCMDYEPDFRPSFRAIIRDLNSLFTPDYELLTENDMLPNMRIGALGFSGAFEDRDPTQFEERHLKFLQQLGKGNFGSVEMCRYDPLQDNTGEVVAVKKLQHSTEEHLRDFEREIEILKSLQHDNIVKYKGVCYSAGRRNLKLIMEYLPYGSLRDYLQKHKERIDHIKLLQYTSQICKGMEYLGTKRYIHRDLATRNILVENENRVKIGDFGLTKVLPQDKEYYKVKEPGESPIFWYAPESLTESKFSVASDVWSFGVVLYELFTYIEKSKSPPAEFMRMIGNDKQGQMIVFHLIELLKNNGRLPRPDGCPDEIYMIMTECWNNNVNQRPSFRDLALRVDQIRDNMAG

Work on `Cc1cnc(Nc2cc3c4c(c2)OCCOB4OC3)nc1N[C@@H]1CCC[C@H]1C#N` (relative stereo) [Example 004, (trans)-2-((2-((7,8-dihydro-2H-1,6,9-trioxa-9a-borabenzo [cd]azulen-4-yl)amino)-5-methylpyrimidin-4-yl)amino)cyclopentane-1-carbonitrile] yielded an IC50 (JAK2; Table 3a) of 49.7 nM and an IC50 (JAK1; Table 3a) of 1.6 nM.
With `Cc1cnc(Nc2ccc3c(c2)C=CB(O)O3)nc1N[C@@H]1CCC[C@H]1C#N` (relative stereo) [Example 007, (trans)-2-((2-((2-hydroxy-2H-benzo[e][1,2]oxaborinin-6-yl)amino)-5-methylpyrimidin-4-yl)amino)cyclopentane-1-carbonitrile] the IC50 (JAK2; Table 3a) was 52.6 nM and the IC50 (JAK1; Table 3a) was 5.3 nM.
For `Cc1cnc(Nc2cc(C)c3c(c2)COB3O)nc1N[C@@H]1CCCC[C@H]1C#N` (relative stereo) [Example 009, (trans)-2-((2-((1-hydroxy-7-methyl-1,3-dihydrobenzo[c][1,2]oxaborol-5-yl)amino)-5-methylpyrimidin-4-yl)amino)cyclohexane-1-carbonitrile], the IC50 (JAK2; Table 3a) was 13.8 nM, the IC50 (JAK1; Table 3a) was 1.1 nM and the “Dog LM QH” value [1] was <19.9%.
With `Cc1cnc(Nc2ccc3c(c2)C(C)(C)OB3O)nc1N[C@@H]1CCCC[C@H]1C#N` (relative stereo) [Example 014, (trans)-2-[[2-[(1-hydroxy-3,3-dimethyl-2,1-benzoxaborol-5-yl)amino]-5-methylpyrimidin-4-yl]amino]cyclohexanecarbonitrile hydrochloride] the IC50 (JAK2; Table 3a) was 6.3 nM, the IC50 (JAK1; Table 3a) was 1.4 nM and the “Dog LM QH” value [1] was 48.7%.
`Cc1cnc(Nc2ccc3c(c2)C=CB(O)O3)nc1N[C@@H]1CCCC[C@H]1C#N` (relative stereo) [Example 015, (trans)-2-[[2-[(2-hydroxy-1,2-benzoxaborinin-6-yl)amino]-5-methyl-pyrimidin-4-yl]amino]cyclohexanecarbonitrile] showed an IC50 (JAK2; Table 3a) of 103 nM and an IC50 (JAK1; Table 3a) of 9 nM.
In the case of `CC1=Cc2cc(Nc3ncc(C)c(N[C@@H]4CCCC[C@H]4C#N)n3)ccc2OB1O` (relative stereo) [Example 016, (trans)-2-((2-((2-hydroxy-3-methyl-2H-benzo[e][1,2]oxaborinin-6-yl)amino)-5-methylpyrimidin-4-yl)amino)cyclohexane-1-carbonitrile], the IC50 (JAK2; Table 3a) is reported as 17.5 nM, the IC50 (JAK1; Table 3a) is reported as 2.5 nM and the “Dog LM QH” value [1] is reported as 70.2%.
In the case of `Cc1cnc(Nc2cc(C#N)c3c(c2)COB3O)nc1N[C@@H]1CCC[C@H]1C#N` (relative stereo) [Example 018, 5-((4-(((trans)-2-cyanocyclopentyl)amino)-5-methylpyrimidin-2-yl)amino)-1-hydroxy-1,3-dihydrobenzo[c][1,2]oxaborole-7-carbonitrile], the IC50 (JAK2; Table 3a) is reported as 10.4 nM, the IC50 (JAK1; Table 3a) is reported as 0.5 nM and the “Dog LM QH” value [1] is reported as <19.9%.
For `N#C[C@@H]1CCCC[C@H]1Nc1nc(Nc2cc(Cl)c3c(c2)COB3O)ncc1Cl` (relative stereo) [Example 019, (trans)-2-((5-chloro-2-((7-chloro-1-hydroxy-1,3-dihydrobenzo[c][1,2]oxaborol-5-yl)amino)pyrimidin-4-yl)amino)cyclohexane-1-carbonitrile], the IC50 (JAK2; Table 3a) was 3.2 nM and the IC50 (JAK1; Table 3a) was 0.2 nM.
`N#C[C@@H]1CCCC[C@H]1Nc1nc(Nc2cc(Cl)c3c(c2)COB3O)ncc1F` (relative stereo) [Example 020, (trans)-2-[[2-[(7-chloro-1-hydroxy-3H-2,1-benzoxaborol-5-yl)amino]-5 fluoropyrimidin-4-yl]amino]cyclohexanecarbonitrile] gave an IC50 (JAK2; Table 3a) of 50.7 nM and an IC50 (JAK1; Table 3a) of 1.4 nM.
`N#C[C@@H]1CCCC[C@H]1Nc1nc(Nc2cc(Cl)c3c(c2)COB3O)ncc1C(F)(F)F` (relative stereo) [Example 021, (trans)-2-((2-((7-chloro-1-hydroxy-1,3-dihydrobenzo[c][1,2]oxaborol-5-yl)amino)-5-(trifluoromethyl)pyrimidin-4-yl)amino)cyclohexanecarbonitrile] showed an IC50 (JAK2; Table 3a) of 3.2 nM and an IC50 (JAK1; Table 3a) of 2.7 nM.
In the case of `N#C[C@@H]1CCC[C@H]1Nc1nc(Nc2cc(Cl)c3c(c2)COB3O)ncc1C(F)(F)F` (relative stereo) [Example 022, (trans)-2-[[2-[(7-chloro-1-hydroxy-3H-2,1-benzoxaborol-5-yl)amino]-5-(trifluoromethyl)pyrimidin-4-yl]amino]cyclopentanecarbonitrile], the IC50 (JAK2; Table 3a) is reported as 7.5 nM and the IC50 (JAK1; Table 3a) is reported as 3.3 nM.
`N#C[C@@H]1CCCC[C@H]1Nc1nc(Nc2cc(F)c3c(c2)COB3O)ncc1Cl` (relative stereo) [Example 023, (trans)-2-((5-chloro-2-((7 fluoro-1-hydroxy-1,3-dihydrobenzo[c][1,2]oxaborol-5-yl)amino)pyrimidin-4-yl)amino)cyclohexane-1-carbonitrile] showed an IC50 (JAK2; Table 3a) of 0.6 nM and an IC50 (JAK1; Table 3a) of 0.2 nM.
For `Cc1cnc(Nc2cc3c(c(C4CC4)c2)B(O)OC3)nc1N[C@@H]1COCC[C@H]1C#N` (relative stereo) [Example 025, (trans)-3-[[2-[(7-cyclopropyl-1-hydroxy-3H-2,1-benzoxaborol-5-yl)amino]-5-methyl-pyrimidin-4-yl]amino]tetrahydropyran-4-carbonitrile], the IC50 (JAK2; Table 3a) was 24.2 nM, the IC50 (JAK1; Table 3a) was 0.4 nM and the “Dog LM QH” value [1] was <19.9%.
`Cc1cnc(Nc2cc(C#N)c3c(c2)COB3O)nc1N[C@@H]1COCC[C@H]1C#N` (relative stereo) [Example 045, 5-((4-(((trans)-4-cyanotetrahydro-2H-pyran-3-yl)amino)-5-methylpyrimidin-2-yl)amino)-1-hydroxy-1,3-dihydrobenzo[c][1,2]oxaborole-7-carbonitrile] gave an IC50 (JAK2; Table 3a) of 10.6 nM and an IC50 (JAK1; Table 3a) of 0.5 nM.
With `N#C[C@@H]1CCOC[C@H]1Nc1nc(Nc2cc(Cl)c3c(c2)COB3O)ncc1F` (relative stereo) [Example 046, (trans)-3-((2-((7-chloro-1-hydroxy-1,3-dihydrobenzo[c][1,2]oxaborol-5-yl)amino)-5-fluoropyrimidin-4-yl)amino) tetrahydro-2H-pyran-4-carbonitrile] the IC50 (JAK2; Table 3a) was 186 nM and the IC50 (JAK1; Table 3a) was 3.4 nM.
`N#C[C@@H]1CCOC[C@H]1Nc1nc(Nc2ccc3c(c2)COB3O)ncc1Cl` (relative stereo) [Example 047, (trans)-3-((5-chloro-2-((1-hydroxy-1,3-dihydrobenzo[c][1,2]oxaborol-5-yl)amino)pyrimidin-4-yl)amino)tetrahydro-2H-pyran-4-carbonitrile] showed an IC50 (JAK2; Table 3a) of 7.6 nM and an IC50 (JAK1; Table 3a) of 0.34 nM.
With `N#C[C@@H]1CCOC[C@H]1Nc1nc(Nc2cc(Cl)c3c(c2)COB3O)ncc1Cl` (relative stereo) [Example 048, (trans)-3-[[5-chloro-2-[(7-chloro-1-hydroxy-3H-2,1-benzoxaborol-5-yl)amino]pyrimidin-4-yl]amino]tetrahydropyran-4-carbonitrile] the IC50 (JAK2; Table 3a) was 15.6 nM and the IC50 (JAK1; Table 3a) was 0.6 nM.
For `Cc1cnc(Nc2cc(Cl)c3c(c2)COB3O)nc1NC1CCCC[C@@H]1C#N` (single isomer, unassigned) [Example 010b, (trans)-2-[[2-[(7-chloro-1-hydroxy-3H-2,1-benzoxaborol-5-yl)amino]-5-methyl-pyrimidin-4-yl]amino]cyclohexanecarbonitrile], the “Dog LM QH” value [1] was <19.9%.
In the case of `Cc1cnc(Nc2cc(Cl)c3c(c2)COB3O)nc1N[C@H]1CCCC[C@@H]1C#N` (single isomer, unassigned) [Example 010b, (trans)-2-[[2-[(7-chloro-1-hydroxy-3H-2,1-benzoxaborol-5-yl)amino]-5-methyl-pyrimidin-4-yl]amino]cyclohexanecarbonitrile], the IC50 (JAK2; Table 3a) is reported as 811 nM and the IC50 (JAK1; Table 3a) is reported as 22.3 nM.
With `Cc1cnc(Nc2cc(Cl)c3c(c2)COB3O)nc1N[C@@H]1COCC[C@H]1C#N` (single isomer, unassigned) [Example 031a, (trans)-3-((2-((7-chloro-1-hydroxy-1,3-dihydrobenzo[c][1,2]oxaborol-5-yl)amino)-5-methylpyrimidin-4-yl)amino)tetrahydro-2H-pyran-4-carbonitrile] the “Dog LM QH” value [1] was <19.9%.
For `Cc1cnc(Nc2cc3c4c(c2)OCCOB4OC3)nc1NC1CCCCC1C#N` (stereo not drawn) [Example 013, (trans)-2-((2-((7,8-dihydro-2H-1,6,9-trioxa-9a-borabenzo[c,d]azulen-4-yl)amino)-5-methylpyrimidin-4-yl)amino)cyclohexane-1-carbonitrile], the IC50 (JAK2; Table 3a) was 101 nM and the IC50 (JAK1; Table 3a) was 2.6 nM.
Work on `Cc1cc(Nc2ncc(Cl)c(NC3CCCCC3C#N)n2)cc2c1B(O)OC2` (stereo not drawn) [Example 024, 2-[[5-chloro-2-[(1-hydroxy-7-methyl-3H-2,1-benzoxaborol-5-yl)amino]pyrimidin-4-yl]amino]cyclohexanecarbonitrile] yielded an IC50 (JAK2; Table 3a) of 11.2 nM and an IC50 (JAK1; Table 3a) of 5.9 nM.
Work on `Cc1cnc(Nc2ccc3c(c2)C(C)OB3O)nc1NC1COCCC1C#N` (stereo not drawn) [Example 028, (trans)-3-[[2-[(1-hydroxy-3-methyl-3H-2,1-benzoxaborol-5-yl)amino]-5-methyl-pyrimidin-4-yl]amino]tetrahydropyran-4-carbonitrile] yielded an IC50 (JAK2; Table 3a) of 3.5 nM and an IC50 (JAK1; Table 3a) of 0.5 nM.
`OB1OCc2cc(Nc3ncc(F)c(NC4CCCC4)n3)ccc21` [Example C013] showed an IC50 (JAK2; Table 3b, comparator compounds) of 705 nM and an IC50 (JAK1; Table 3b, comparator compounds) of 32.3 nM.
